Test system: THP1 cells (LPS induced TNF release)
Assay: Lipopolysaccharide-Activated THP1 Cell TNF Production Assay
Type: cell-based
Details: Homo sapiens, THP-1; THP1 cells, bacterial LPS, secreted TNF-α after 3 h at 37° C.; read-out: IC50 values in the THP1 cell assay (LPS induced TNF release)
Experimental: Lipopolysaccharide-Activated THP1 Cell TNF Production Assay
THP1 cells are resuspended in fresh THP1 media (RPMI 1640, 10% heat-inactivated FBS, 1×PGS, 1×NEAA, plus 30 μM βME) at a concentration of 1E6/mL. One hundred microliters of cells per well are plated in a polystyrene 96-well tissue culture. One microgram per mL of bacterial LPS is prepared in THP1 media and is transferred to the wells. Test compounds are dissolved in 100% DMSO and are serially diluted 3 fold in a polypropylene 96-well microtiter plate (drug plate). HI control and LO control wells contain only DMSO. One microliter of test compound from the drug plate followed by 10 μL of LPS are transferred to the cell plate. The treated cells are induced to synthesize and secrete TNF-α at 37° C. for 3 h. Forty microliters of conditioned media are transferred to a 96-well polypropylene plate containing 110 μL of ECL buffer (50 mM Tris-HCl pH 8.0, 100 mM NaCl, 0.05% Tween 20, 0.05% NaN3 and 1% FBS) supplemented with 0.44 nM MAB610 monoclonal Ab (R&D Systems), 0.34 nM ruthenylated AF210NA polyclonal Ab (R&D Systems) and 44 μg/mL sheep anti-mouse M280 Dynabeads (Dynal). After a 2 h incubation at RT with shaking, the reaction is read on the ECL M8 Instrument (IGEN Inc.). A low voltage is applied to the ruthenylated TNF-α immune complexes, which in the presence of TPA (the active component in Origlo), results in a cyclical redox reaction generating light at […]. The amount of secreted TNF-α in the presence of compound compared with that in the presence of DMSO vehicle alone (HI control) is calculated using the formula: % control (POC)=(cpd−average LO)/(average HI−average LO)*100. Data (consisting of POC and inhibitor concentration in μM) is fitted to a 4-parameter equation (y=A+((B−A)/(1+((×/C)ôD))), where A is the minimum y (POC) value, B is the maximum y (POC), C is the x (cpd concentration) at the point of inflection and D is the slope factor) using a Levenburg-Marquardt non-linear regression algorithm.

Structure (SMILES) | IC50 [µM]
C[C@@H](Cc1cc(CN)ccc1Cl)Nc1nccc(N(C)c2ccnc(-c3ccccc3)n2)n1 [Example 42, (S)-N^2-(1-(5-(Aminomethyl)-2-chlorophenyl)propan-2-yl)-N^4-methyl-N^4-(2-phenyl-pyrimidin-4-yl)pyrimidine-2,4-diamine] | ≤ 20
CN(c1ccnc(NCCc2ccccc2)n1)c1nccc(-c2ccccc2)n1 [Example 184, N^4-Methyl-N^2-phenethyl-N^4-(4-phenylpyrimidin-2-yl)pyrimidine-2,4-diamine] | ≤ 20
CN(c1ccnc(N[C@H](Cc2ccccc2)C(N)=O)n1)c1ccnc(-c2ccccc2)n1 [Example 39] | ≤ 20
CN(c1ccnc(NCCc2cccnc2)n1)c1ccnc(-c2ccc(F)cc2)n1 [Example 73, N^4-(2-(4-Fluorophenyl)pyrimidin-4-yl)-N^4-methyl-N^2-(2-(pyridin-3-yl)ethyl)-pyrimidine-2,4-diamine] | ≤ 20
CN(c1ccnc(NC(C)(C)CNC(=O)OC(C)(C)C)n1)c1ccnc(-c2ccccc2)n1 [Example 26, tert-Butyl 2-methyl-2-(4-(methyl(2-phenylpyrimidin-4-yl)amino)pyrimidin-2-yl-amino)propylcarbamate] | ≤ 20
CN(c1ccnc(NCCc2ccccc2)n1)c1ccnc(-c2ccccc2)n1 [Example 106, N^4-Methyl-N^2-phenethyl-N^4-(2-phenylpyrimidin-4-yl)pyrimidine-2,4-diamine] | ≤ 20
CN(c1cccc(Cc2ccccc2)n1)c1ccnc(NCCc2ccccc2)n1 [Example 151, N^4-(6-Benzylpyridin-2-yl)-N^4-methyl-N^2-phenethylpyrimidine-2,4-diamine] | ≤ 20

Now from value to compound:

IC50 [µM] | Structure (SMILES)
≤ 20 | C[C@H](Nc1nccc(N(C)c2ccnc(-c3ccccc3)n2)n1)c1ccc(CCN)cc1 [Example 3, (S)-N^2-(1-(4-(2-Aminoethyl)phenyl)ethyl)-N^4-methyl-N^4-(2-phenylpyrimidin-4-yl)pyrimidine-2,4-diamine]
≤ 20 | CN(c1ccnc(NC(C)(C)CNC(=O)OC(C)(C)C)n1)c1cc(-c2ccccc2)cc(=O)n1C [Example 161, tert-Butyl 2-methyl-2-(4-(methyl(1-methyl-6-oxo-4-phenyl-1,6-dihydropyridin-2-yl)amino)pyrimidin-2-ylamino)propylcarbamate]
≤ 20 | CN(c1cccc(-c2cccc(Cl)c2)n1)c1ccnc(NCCc2ccccc2)n1 [Example 135, N^4-(6-(3-chlorophenyl)pyridin-2-yl)-N^4-methyl-N^2-phenethylpyrimidine-2,4-diamine]
≤ 20 | CN(c1ccnc(N[C@@H](CO)Cc2ccccc2)n1)c1ccnc(-c2ccccc2)n1 [(2R)-2-((4-(methyl(2-phenyl-4-pyrimidinyl)amino)-2-pyrimidinyl)amino)-3-phenyl-1-propanol]
≤ 20 | CC(=O)N1CCC(CNc2nccc(N(C)c3ccnc(-c4ccccc4)n3)n2)CC1 [Example 115, 1-(4-((4-(Methyl(2-phenylpyrimidin-4-yl)amino)pyrimidin-2-ylamino)methyl)-piperidin-1-yl)ethanone]
≤ 20 | CN(c1cccc(C2=CCCCC2)n1)c1ccnc(NCCc2ccccc2)n1 [Example 148, N^4-(6-cyclohexenylpyridin-2-yl)-N^4-methyl-N^2-phenethylpyrimidine-2,4-diamine]
≤ 20 | CN(c1ccnc(NCCc2cccnc2)n1)c1ccnc(-c2cccs2)n1 [Example 79, N^4-Methyl-N^2-(2-(pyridin-3-yl)ethyl)-N^4-(2-(thiophen-2-yl)pyrimidin-4-yl)-pyrimidine-2,4-diamine]
≤ 20 | Cc1ccccc1-c1nccc(N(C)c2ccnc(NCCc3cccnc3)n2)n1 [Example 105, N^4-Methyl-N^2-(2-(pyridin-3-yl)ethyl)-N^4-(2-o-tolylpyrimidin-4-yl)pyrimidine-2,4-diamine]
≤ 20 | CN(c1cccc(-c2ccccc2C(F)(F)F)n1)c1ccnc(NCCc2ccccc2)n1 [Example 130, N^4-Methyl-N^2-phenethyl-N^4-(6-(2-(trifluoromethyl)phenyl)pyridin-2-yl)-pyrimidine-2,4-diamine]
